Experiment: Sensory tasting of the active ingredients (mouth-watering and/or tingling effect) by a trained expert panel
Assay type: in vivo, human
Conditions: for Sensory Rating: intensity of mouth-watering and/or tingling/fizzing effect (figure in brackets): 50 ppm
Method: The sensory tasting of the active ingredients according to the invention was carried out as follows: • (1) The active ingredients were each prepared in a 5% sugar solution or in an unflavored standard fondant mass. Fondant is the name for a soft, pasty sugar mass that is used to make various confectionery products. Fondant is made from water and sucrose as well as glucose syrup, invert sugar cream and/or sugar alcohols (e.g., sorbitol or mannitol). The mixture is boiled and then processed into a soft paste by kneading it vigorously and cooling it quickly. • (2) The concentration of the active ingredients was 25 or 50 ppm. • (3) The test samples were tested under practical conditions by a panel of experts with sensory training. For tasting, 3 to 7 tasters each rinsed their mouths with approx. 5 ml of the sugar solution and spat the solution out again. The mouth-watering and/or tingling effect was assessed on a scale of 1 (very weak) to 10 (very strong) and the profile evaluated.

[1] = 25 ppm in 5% sugar solution or unflavored fondant mass, 3 to 7 tasters
[2] = 50 ppm in 5% sugar solution or unflavored fondant mass, 3 to 7 tasters
[3] = scale of 1 (very weak) to 10 (very strong)

Question: For CCOc1ccc(C(=O)N2CCN(CCc3ccccc3)CC2)cc1 [Compound 43, (4-ethoxyphenyl)-[4-(2-phenylethyl)piperazin-1-yl]methanone], which “Sensory Rating (profile in words)” value [1] is on record?
Answer: metallic, slightly numbing, tingling/fizzing and mouth- watering effect

Question: And the “Sensory Rating (profile in words)” value [2]?
Answer: strongly bitter, metallic, tingling/fizzing (7) , and mouth-watering effect

Question: And the “Sensory Rating: intensity of mouth-watering and/or tingling/fizzing effect (figure in brackets)” value [3]?
Answer: 7

Question: For O=C(c1ccccc1)N1CCN(C/C=C/c2ccccc2)CC1 [Compound 17, [4-[(E)-cinnamyl]piperazin-1-yl]-phenyl-methanone], which “Sensory Rating (profile in words)” value [2] is on record?
Answer: slightly tingling/ fizzing, slightly honey-like

Question: And the “Sensory Rating: intensity of mouth-watering and/or tingling/fizzing effect (figure in brackets)” value [3]?
Answer: 3

Question: Which “Sensory Rating (profile in words)” value [2] does the source give for CCOc1ccc(C(=O)N2CCN(Cc3ccccc3)CC2)cc1 [Compound 48, (4-benzylpiperazin-1-yl)-(4-ethoxy-phenyl)methanone] here?
Answer: slightly tingling/ fizzing (1-2)

Question: What about the “Sensory Rating: intensity of mouth-watering and/or tingling/fizzing effect (figure in brackets)” value [3] of the same molecule?
Answer: slightly tingling/ fizzing (1-2)

Question: Which results are given for O=C(c1ccccc1)N1CCC(CCCc2ccccc2)CC1 [Compound 20, Phenyl-[4-(3-phenyl-propyl)-1-piperidyl]-methanone]?
Answer: Sensory Rating (profile in words) [2]: slightly tingling/ fizzing (2), mouth-watering, Anthranilate- like, fruity note; Sensory Rating: intensity of mouth-watering and/or tingling/fizzing effect (figure in brackets) [3]: slightly tingling/ fizzing (2), mouth-watering, Anthranilate- like, fruity note

Question: Which “Sensory Rating (profile in words)” value [2] does the source give for O=C(c1ccccc1)N1CCN(Cc2ccccc2)CC1 [Compound 23, (4-benzylpiperazin-1-yl)-phenyl-methanone] here?
Answer: Slightly floral taste, slightly metallic, not a pleasant taste, very slightly mouth-watering and tingling/fizzing

Question: What about the “Sensory Rating: intensity of mouth-watering and/or tingling/fizzing effect (figure in brackets)” value [3] of the same molecule?
Answer: 3

Question: Which “Sensory Rating (profile in words)” value [2] does the source give for CCOc1ccc(C(=O)N2CCC(CCCc3ccccc3)CC2)cc1 [Compound 45, (4-ethoxyphenyl)-[4-(3-phenyl-propyl)-1-piperidyl]-methanone] here?
Answer: slightly tin- gling/ fizzing (2)

Question: And the “Sensory Rating: intensity of mouth-watering and/or tingling/fizzing effect (figure in brackets)” value [3]?
Answer: slightly tin- gling/ fizzing (2)

Question: For CCCOc1ccc(C(=O)N2CCN(C/C=C/c3ccccc3)CC2)cc1OCCC [Compound 1, [4-[(E)-cinnamyl]pi-perazin-1-yl]-(3,4-dipropoxy-phenyl)methanone], which “Sensory Rating (profile in words)” value [1] is on record?
Answer: astringent mouth-watering, Spilanthes effect

Question: For COc1ccc(C(=O)N2CCN(CCc3ccccc3)CC2)cc1OC [Compound 28, (3,4-Dimethoxy-phenyl)-[4-(2-phenyl-ethyl)piperazin-1-yl]methanone], which “Sensory Rating (profile in words)” value (dosage 25 and 50 ppm, cell not split by dosage) is on record?
Answer: slightly tingling/ fizzing (3) slightly metallic

Question: What about the “Sensory Rating: intensity of tingling/fizzing effect (figure in brackets)” value (dosage 25 and 50 ppm, cell not split by dosage, scale of 1 (very weak) to 10 (very strong)) of the same molecule?
Answer: slightly tingling/ fizzing (3) slightly metallic

Question: What does the source list for CCOc1ccc(C(=O)N2CCN(C/C=C/c3ccccc3)CC2)cc1 [Compound 42, [4-[(E)-cinnamyl]piperazin-1-yl]-(4-ethoxy-phenyl)methanone]?
Answer: Sensory Rating (profile in words) [2]: slightly tingling (3-4), and mouth- watering, fruity, creamy, Vanilla flavor; Sensory Rating: intensity of mouth-watering and/or tingling/fizzing effect (figure in brackets) [3]: slightly tingling (3-4), and mouth- watering, fruity, creamy, Vanilla flavor

Question: With COc1ccc(C(=O)N2CCN(CCC3CCCCC3)CC2)cc1OC [Compound 29, [4-(2-cyclo-hexylethyl)piperazin-1-yl]-(3,4-dimethoxy-phenyl)methanone] as the molecule, how does the “Sensory Rating (profile in words)” value [2] read?
Answer: slightly mouth-watering, slightly tingling/ fizzing (1-2), green note, light onion flavor

Question: And the “Sensory Rating: intensity of mouth-watering and/or tingling/fizzing effect (figure in brackets)” value [3]?
Answer: slightly mouth-watering, slightly tingling/ fizzing (1-2), green note, light onion flavor

Question: Which “Sensory Rating (profile in words)” value [1] does the source give for CCOc1ccc(C(=O)N2CCN(CCc3ccccc3)CC2)cc1OCC [Compound 15, (3,4-Diethoxy-phenyl)-[4-(2-phenyl-ethyl)piperazin-1-yl]methanone] here?
Answer: Acid effect, tingling/ fizzing, mouth-watering, slightly salty

Question: With CCOc1ccc(C(=O)N2CCN(CCC3CCCCC3)CC2)cc1OCC [Compound 24, [4-(2-cyclo-hexylethyl)piperazin-1-yl]-(3,4-diethoxy-phenyl)methanone] as the molecule, how does the “Sensory Rating (profile in words)” value [2] read?
Answer: fruity taste (blueberries)

Question: For CCOc1ccc(C(=O)N2CCN(CCc3ccncc3)CC2)cc1OCC [Compound 12, (3,4-Diethoxy-phenyl)-[4-[2-(4-pyridyl)ethyl]piperazin-1-yl] methanone], which “Sensory Rating (profile in words)” value [1] is on record?
Answer: tingling/ fizzing, mouth-watering, ethanolic
